Experimental data taken from US20120022045A1, “BRIDGED COMPOUNDS AS HIV INTEGRASE INHIBITORS” (priority 2009, published 2012).
pIC50: −log10 of the molar value. Read-outs that look alike come from different tables or passages of the source.

Legend:
Assay type in all cases: cell-based
[1] = tested on: HIV-1 integrase mutant virus G140S/Q148H; assay: Single cycle infectivity assay in HeLa P4-2 cells, integrase mutant G140S/Q148H virus; conditions: fold shift in IC50 versus wild type IIIB
Description: (§1) An assay for measuring the inhibition of acute HIV-1 infection with HeLa P4-2 cells in a single cycle infectivity assay was conducted using methods described in Joyce et al., J. Biol. Chem. 2002, 277: 45811, Hazuda et al., Science 2000, 287: 646, and Kimpton et al, J. Virol. 1992, 66: 2232. Proviral plasmids encoding viruses containing specific mutations in the integrase gene (N155H, Q148R, Y143R, E92Q, or G140S/Q148H) were generated by site-directed mutagenesis, and viruses were produced by transfecting 293T cells with the appropriate proviral plasmids.

[2] = tested on: HIV-1 integrase mutant virus N155H; assay: Single cycle infectivity assay in HeLa P4-2 cells, integrase mutant N155H virus; conditions: fold shift in IC50 versus wild type IIIB
Description: as §1

[3] = tested on: HIV-1 integrase mutant virus Y143R; assay: Single cycle infectivity assay in HeLa P4-2 cells, integrase mutant Y143R virus; conditions: fold shift in IC50 versus wild type IIIB
Description: as §1

HIV-1 wild type IIIB = assay: Single cycle infectivity assay in HeLa P4-2 cells, wild type virus
Description: as §1

[4] = tested on: HIV-1 integrase mutant virus Q148R; assay: Single cycle infectivity assay in HeLa P4-2 cells, integrase mutant Q148R virus; conditions: fold shift in IC50 versus wild type IIIB
Description: as §1

HIV-1 = assay: Inhibition of acute HIV-1 infection of T-lymphoid cells (spread assay); conditions: 10% FBS, read-out: IC95 (nM) in the presence of 10% FBS
Description: Assays for the inhibition of acute HIV-1 infection of T-lymphoid cells were conducted in accordance with Vacca, J. P. et al., Proc. Natl. Acad. Sci. USA 1994, 91: 4096.

[5] = Human immunodeficiency virus 1, IIIB, HeLaP4-2, wild type IIIB
[6] = Human immunodeficiency virus 1, T-lymphoid

Compound: CC1C2CCC(N(C)C(=O)C(=O)N(C)C)(CO2)c2nc(C(=O)NCc3ccc(F)cc3)c(O)c(=O)n21 (single isomer, unassigned) [Example 27D, N-(4-{[(4-fluorobenzyl)amino]carbonyl}-5-hydroxy-8-methyl-6-oxo-10-oxa-3,7-diazatricyclo[7.2.2.0^2,7]trideca-2,4-dien-1-yl)-N,N′,N′-trimethylethanediamide]
- G140S/Q148H (shift) [1]: 2 fold
- N155H (shift) [2]: 1 fold
- Y143R (shift) [3]: 1 fold
- pIC50 (HIV-1 wild type IIIB; wild type IIIB): 7.96
- Q148R (shift) [4]: 1 fold
- IC95 (HIV-1): 6.9 nM

Compound: CN(C)C(=O)C(=O)N(C)C12CCC(CC1)Cn1c2nc(C(=O)NCc2ccc(F)cc2)c(O)c1=O (single isomer, unassigned) [Example 24A]
- G140S/Q148H (shift) [1]: >111 fold
- N155H (shift) [2]: 4 fold
- Y143R (shift) [3]: 1 fold
- pIC50 (HIV-1 wild type IIIB; [5]): 7.82
- Q148R (shift) [4]: 5 fold
- IC95 (HIV-1; [6]): 11.7 nM

Compound: CCC1C2CCC(NC(=O)C(=O)N(C)C)(CO2)c2nc(C(=O)NCc3ccc(F)cc3)c(O)c(=O)n21 (single isomer, unassigned) [Example 26D, N′-(8-ethyl-4-{[(4-fluorobenzyl)amino]carbonyl}-5-hydroxy-6-oxo-10-oxa-3,7-diazatricyclo[7.2.2.0^2,7]trideca-2,4-dien-1-yl)-N-dimethylethanediamide]
- G140S/Q148H (shift) [1]: 1 fold
- N155H (shift) [2]: 1 fold
- Y143R (shift) [3]: 2 fold
- pIC50 (HIV-1 wild type IIIB; wild type IIIB): 7.80
- Q148R (shift) [4]: 1 fold
- IC95 (HIV-1): 5.1 nM

Compound: CN(C)C(=O)C(=O)N(C)C12CCC(Cn3c1nc(C(=O)NCc1ccc(F)cc1)c(O)c3=O)OC2 (single isomer, unassigned) [Example 23B]
- G140S/Q148H (shift) [1]: 229 fold
- N155H (shift) [2]: 136 fold
- Y143R (shift) [3]: 7 fold
- pIC50 (HIV-1 wild type IIIB; wild type IIIB): 8.30
- Q148R (shift) [4]: 253 fold
- IC95 (HIV-1): 23.6 nM

Compound: CCC1C2CCC(NC(=O)C(=O)N(C)C)(CO2)c2nc(C(=O)NCc3ccc(F)cc3)c(O)c(=O)n21 (single isomer, unassigned) [Example 26B, N′-(8-ethyl-4-{[(4-fluorobenzyl)amino]carbonyl}-5-hydroxy-6-oxo-10-oxa-3,7-diazatricyclo[7.2.2.0^2,7]trideca-2,4-dien-1-yl)-N-dimethylethanediamide]
- G140S/Q148H (shift) [1]: 1 fold
- N155H (shift) [2]: 1 fold
- Y143R (shift) [3]: 1 fold
- pIC50 (HIV-1 wild type IIIB; wild type IIIB): 7.44
- Q148R (shift) [4]: 1 fold
- IC95 (HIV-1): 22.6 nM

Compound: CN(C(=O)C(=O)N1CCOCC1)C12CCC(Cn3c1nc(C(=O)NCc1ccc(F)cc1)c(O)c3=O)C2 (stereo not drawn) [Example 9, N-(4-Fluorobenzyl)-3-hydroxy-10-{methyl[morpholin-4-yl(oxo)acetyl]amino}-4-oxo-4,6,7,8,9,10-hexahydro-7,10-methanopyrimido[1,2-a]azepine-2-carboxamide]
- G140S/Q148H (shift) [1]: 40 fold
- N155H (shift) [2]: 5 fold
- Y143R (shift) [3]: 2 fold
- pIC50 (HIV-1 wild type IIIB; [5]): 7.37
- Q148R (shift) [4]: 11 fold
- IC95 (HIV-1; [6]): 15 nM

Compound: CCC1C2CCC(N(C)C(=O)C(=O)N(C)C)(CO2)c2nc(C(=O)NCc3ccc(F)cc3)c(O)c(=O)n21 (single isomer, unassigned) [Example 25A, N-(8-ethyl-4-{[(4-fluorobenzyl)amino]carbonyl}-5-hydroxy-6-oxo-10-oxa-3,7-diazatricyclo[7.2.2.0^2,7]trideca-2,4-dien-1-yl)-N,N′,N′-trimethylethanediamide]
- G140S/Q148H (shift) [1]: 1 fold
- N155H (shift) [2]: 1 fold
- Y143R (shift) [3]: 7 fold
- pIC50 (HIV-1 wild type IIIB; wild type IIIB): 7.85
- Q148R (shift) [4]: 1 fold
- IC95 (HIV-1; [6]): 6.3 nM

Compound: CCC1C2CCC(NC(=O)C(=O)N(C)C)(CO2)c2nc(C(=O)NCc3ccc(F)cc3)c(O)c(=O)n21 (single isomer, unassigned) [Example 26A, N′-(8-ethyl-4-{[(4-fluorobenzyl)amino]carbonyl}-5-hydroxy-6-oxo-10-oxa-3,7-diazatricyclo[7.2.2.0^2,7]trideca-2,4-dien-1-yl)-N-dimethylethanediamide]
- G140S/Q148H (shift) [1]: >70 fold
- N155H (shift) [2]: 9 fold
- Y143R (shift) [3]: 2 fold
- pIC50 (HIV-1 wild type IIIB; wild type IIIB): 7.62
- Q148R (shift) [4]: 9 fold
- IC95 (HIV-1): 16.0 nM

Compound: CN(C)C(=O)C(=O)N(C)C12CCC(CC1)n1c2nc(C(=O)NCc2ccc(F)cc2)c(O)c1=O [Example 30]
- G140S/Q148H (shift) [1]: 32 fold
- N155H (shift) [2]: 7 fold
- Y143R (shift) [3]: 3 fold
- pIC50 (HIV-1 wild type IIIB; [5]): 7.77
- Q148R (shift) [4]: 9 fold
- IC95 (HIV-1; [6]): 22.4 nM

Compound: CC1C2CCC(NC(=O)C(=O)N(C)C)(CO2)c2nc(C(=O)NCc3ccc(F)cc3)c(O)c(=O)n21 (single isomer, unassigned) [Example 29A, N′-(4-{[(4-Fluorobenzyl)amino]carbonyl}-5-hydroxy-8-methyl-6-oxo-10-oxa-3,7-diazatricyclo[7.2.2.0^2,7]trideca-2,4-dien-1-yl)-N-dimethylethanediamide]
- G140S/Q148H (shift) [1]: 4 fold
- N155H (shift) [2]: 1 fold
- Y143R (shift) [3]: 1 fold
- pIC50 (HIV-1 wild type IIIB; wild type IIIB): 7.70
- Q148R (shift) [4]: 1 fold
- IC95 (HIV-1): 17.9 nM

Compound: CCC12CCC(NC(=O)C(=O)N(C)C)(CO1)c1nc(C(=O)NCc3ccc(F)cc3)c(O)c(=O)n1C2 (single isomer, unassigned) [Example 22A, N′-(9-ethyl-4-{[(4-fluorolbenzyl)amino]carbonyl}-5-hydroxy-6-oxo-10-oxa-3,7-diazatricyclo[7.2.2.0^2,7]trideca-2,4-dien-1-yl)-N,N-dimethylethanediamide]
- G140S/Q148H (shift) [1]: 198 fold
- N155H (shift) [2]: 23 fold
- Y143R (shift) [3]: 5 fold
- pIC50 (HIV-1 wild type IIIB; wild type IIIB): 8.15
- Q148R (shift) [4]: 24 fold
- IC95 (HIV-1; [6]): 12.7 nM

Compound: CNC(=O)C(=O)N(C)C12CCC(OC1)C(C)n1c2nc(C(=O)NCc2ccc(F)cc2)c(O)c1=O (single isomer, unassigned) [Example 28A, N-(4-{[(4-fluorobenzyl)amino]carbonyl}-5-hydroxy-8-methyl-6-oxo-10-oxa-3,7-diazatricyclo[7.2.2.0^2,7]trideca-2,4-dien-1-yl)-N,N′-dimethylethanediamide]
- G140S/Q148H (shift) [1]: 4 fold
- N155H (shift) [2]: 3 fold
- Y143R (shift) [3]: 1 fold
- pIC50 (HIV-1 wild type IIIB; [5]): 7.34
- Q148R (shift) [4]: 1 fold
- IC95 (HIV-1; [6]): 17.8 nM

Compound: COC12CCC(N(C)C(=O)C(=O)N(C)C)(CC1)c1nc(C(=O)NCc3ccc(F)cc3)c(O)c(=O)n1C2 [Example 15, N-(4-{[(4-Fluorobenzyl)amino]carbonyl}-5-hydroxy-9-methoxy-6-oxo-3,7-diazatricyclo[7.2.2.0^2,7]trideca-2,4-dien-1-yl)-N,N′,N′-trimethylethanediamide]
- G140S/Q148H (shift) [1]: 9 fold
- N155H (shift) [2]: 2 fold
- Y143R (shift) [3]: 1 fold
- pIC50 (HIV-1 wild type IIIB; [5]): 7.64
- Q148R (shift) [4]: 1 fold
- IC95 (HIV-1; [6]): 9.5 nM

Compound: COC12CCC(N(C)C(=O)C(=O)N(C)C)(CC1)c1nc(C(=O)NCc3ccc(F)c(C)c3)c(O)c(=O)n1C2 [Example 14, N-(4-{[(4-Fluoro-3-methylbenzyl)amino]carbonyl}-5-hydroxy-9-methoxy-6-oxo-3,7-diazatricyclo[7.2.2.0^2,7]trideca-2,4-dien-1-yl)-N,N′,N′-trimethylethanediamide]
- G140S/Q148H (shift) [1]: 4 fold
- N155H (shift) [2]: 2 fold
- Y143R (shift) [3]: 2 fold
- pIC50 (HIV-1 wild type IIIB; [5]): 7.92
- Q148R (shift) [4]: 1 fold
- IC95 (HIV-1; [6]): 13.1 nM

Compound: CCC12CCC(N(C)C(=O)C(=O)N(C)C)(CO1)c1nc(C(=O)NCc3ccc(F)cc3)c(O)c(=O)n1C2 (single isomer, unassigned) [Example 20B, N-(9-ethyl-4-{[(4-fluorolbenzyl)amino]carbonyl}-5-hydroxy-6-oxo-10-oxa-3,7-diazatricyclo[7.2.2.0^2,7]trideca-2,4-dien-1-yl)-N,N′,N′-trimethylethanediamide]
- G140S/Q148H (shift) [1]: 102 fold
- N155H (shift) [2]: 7 fold
- Y143R (shift) [3]: 1 fold
- pIC50 (HIV-1 wild type IIIB; wild type IIIB): 7.77
- Q148R (shift) [4]: 11 fold
- IC95 (HIV-1): 16.7 nM
